Experimental data reported in patent US8198299B2, “Cycloalkylidene and heterocycloalkylidene inhibitor compounds” (Gilead Sciences, Inc., priority 2008, dated 2012).

Target: HDAC 1 (Homo sapiens, UniProt Q13547)
Test: HDAC 1 inhibition assay with about 3-hour enzyme/compound preincubation (fluorophore/quencher peptide substrate)
Assay type: biochemical
Conditions: 3-hour preincubation of enzyme and compound at room temperature; read-out: HDAC 1 inhibitory activity (IC50 [μM]) (3-hour preincubation)
Description: HDAC inhibitory activity of the compound of Example 1 was measured by two types of assays in which HDAC 1 and 6 were used as a target molecule. The first assay was carried out without preincubation after addition of the enzyme. The test compound was suspended in and titrated in DMSO. It was then spotted into a 384-well test plate. The enzyme, HDAC 1 or 6, was diluted in assay buffer containing 25 mM Tris-HCl (pH 8.0), 137 mM NaCl, 2.7 mM KCl, and 0.01% Tween-20 and added to the pre-spotted compound. The peptide substrate containing a fluorophore/quencher pair was diluted in the same assay buffer and added to the compound/enzyme mix initiating the reaction. The reaction incubated at room temperature for about 45 minutes. A concentrated developer solution was diluted in the assay buffer, and added to the reaction. The reaction was incubated at room temperature for about 15 minutes and relative fluorescence was read on an instrument reader.
The second assay is similar to the first assay described above, except that preincubation is carried out for about 3 hours after the enzyme is introduced. The test compound was suspended in, and titrated in DMSO. It was then spotted into a 384-well test plate. The enzyme, HDAC 1 or 6, was diluted in the same assay buffer as used in the previous assay and added to the pre-spotted compound. The enzyme/compound mix was incubated at room temperature for about 3 hours. The peptide substrate containing a fluorophore/quencher pair was diluted in the assay buffer and added to the compound/enzyme mix initiating the reaction. The reaction incubated at room temperature for 45 minutes. A concentrated developer solution was diluted in the assay buffer, and added to the reaction. The reaction was incubated at room temperature for about 15 minutes and relative fluorescence was read on an instrument reader.

Chain of HDAC 1 (Q13547 whole entry, species assumed): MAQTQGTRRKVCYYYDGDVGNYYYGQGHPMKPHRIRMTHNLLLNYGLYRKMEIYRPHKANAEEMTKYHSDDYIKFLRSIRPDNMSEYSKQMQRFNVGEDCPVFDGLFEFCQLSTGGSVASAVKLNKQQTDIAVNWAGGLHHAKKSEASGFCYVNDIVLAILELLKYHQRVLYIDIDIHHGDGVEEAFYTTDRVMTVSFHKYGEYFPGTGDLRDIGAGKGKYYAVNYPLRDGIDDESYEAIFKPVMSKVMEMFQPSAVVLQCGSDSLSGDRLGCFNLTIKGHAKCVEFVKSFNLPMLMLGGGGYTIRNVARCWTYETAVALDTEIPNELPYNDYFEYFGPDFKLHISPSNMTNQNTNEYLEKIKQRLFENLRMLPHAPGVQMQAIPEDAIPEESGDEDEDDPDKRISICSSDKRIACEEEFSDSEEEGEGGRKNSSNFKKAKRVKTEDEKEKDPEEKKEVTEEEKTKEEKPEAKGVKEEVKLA

Structure (SMILES)	IC50 [µM]
Cc1nc2ccccn2c1-c1csc(C2(c3ccc(C(=O)Nc4ccccc4N)cc3)CC2)n1 [Example 1, N-(2-amino-phenyl)-4-{1-[4-(2-methyl-imidazo[1,2-a]pyridin-3-yl)-thiazol-2-yl]-cyclopropyl}-benzamide]	0.0239
Cc1nc2ccccn2c1-c1csc(C2(c3ccc(C(=O)NO)cc3)CC2)n1 [Example 2, N-hydroxy-4-{1-[4-(2-methyl-imidazo[1,2-a]pyridin-3-yl)-thiazol-2-yl]-cyclopropyl}-benzamide]	0.024
CC(=O)c1sc(C2(c3ccc(C(=O)Nc4ccccc4N)cc3)CC2)nc1C [Example 3, 4-[1-(5-Acetyl-4-methyl-thiazol-2-yl)-cyclopropyl]-N-(2-amino-phenyl)-benzamide]	0.065
Cc1nc(C2(c3ccc(C(=O)Nc4ccccc4N)cc3)CC2)sc1C(=O)N(C)C [Example 4, 2-(1-(4-(2-aminophenylcarbamoyl)phenyl)cyclopropyl)-N,N-4-trimethylthiazole-5-carboxamide]	0.331
Nc1ccccc1NC(=O)c1ccc(C2(c3nc(-c4cccnc4)cs3)CC2)cc1 [Example 5, N-(2-Amino-phenyl)-4-[1-(4-pyridin-3-yl-thiazol-2-yl)-cyclopropyl]-benzamide]	0.012
Nc1ccccc1NC(=O)c1ccc(C2(c3nc(-c4cccnc4)cs3)CCCC2)cc1 [Example 6, N-(2-Amino-phenyl)-4-[1-(4-pyridin-3-yl-thiazol-2-yl)-cyclopentyl]-benzamide]	0.012
Cc1nc2ccccn2c1-c1csc(C2(c3ccc(C(=O)Nc4ccccc4N)cc3)CCCC2)n1 [Example 7]	0.008
Nc1ccccc1NC(=O)c1ccc(C2(c3nc(-c4cccnc4)cs3)CCOCC2)cc1 [Example 8, N-(2-Amino-phenyl)-4-[4-(4-pyridin-3-yl-thiazol-2-yl)-tetrahydro-pyran-4-yl]-benzamide]	0.037
Cc1nc2ccccn2c1-c1csc(C2(c3ccc(C(=O)Nc4ccccc4N)cc3)CCOCC2)n1 [Example 9, N-(2-Amino-phenyl)-4-{4-[4-(2-methyl-imidazo[1,2-a]pyridin-3-yl)-thiazol-2-yl]-tetrahydro-pyran-4-yl}-benzamide]	0.003
CC(C)NC(=O)c1csc(C2(c3ccc(C(=O)Nc4ccccc4N)cc3)CC2)n1 [Example 10, 2-(1-(4-(2-aminophenylcarbamoyl)phenyl)cyclopropyl)-N-isopropylthiazole-4-carboxamide]	0.279
Nc1ccccc1NC(=O)c1ccc(C2(c3nc4c(s3)CCCC4)CC2)cc1 [Example 11, N-(2-amino-phenyl)-4-[1-(4,5,6,7-tetrahydro-benzothiazol-2-yl)-cyclopropyl]-benzamide]	0.069
CCOC(=O)N1CCc2nc(C3(c4ccc(C(=O)Nc5ccccc5N)cc4)CC3)sc2C1 [Example 12]	0.016
Nc1ccccc1NC(=O)c1ccc(C2(c3nccs3)CCOCC2)cc1 [Example 15]	0.119
Cc1csc(C2(c3ccc(C(=O)Nc4ccccc4N)cc3)CC2)n1 [Example 16, N-(2-aminophenyl)-4-(1-(4-methylthiazol-2-yl)cyclopropyl)benzamide]	0.0988
CC(C)[C@H](N)C(=O)N1CCc2nc(C3(c4ccc(C(=O)Nc5ccccc5N)cc4)CC3)sc2C1 [Example 17, (S)-4-(1-(5-(2-amino-3-methylbutanoyl)-4,5,6,7-tetrahydrothiazolo[5,4-c]pyridin-2-yl)cyclopropyl)-N-(2-aminophenyl)benzamide]	0.0982
Nc1ccccc1NC(=O)c1ccc(C2(c3nc(-c4ccc(Cl)nc4)cs3)CCOCC2)cc1 [Example 18, N-(2-aminophenyl)-4-(4-(4-(6-chloropyridin-3-yl)thiazol-2-yl)tetrahydropyran-4-yl)benzamide]	0.0139
Nc1ccc(F)cc1NC(=O)c1ccc(C2(c3nc(-c4cccnc4)cs3)CC2)cc1 [Example 19, N-(2-Amino-5-fluoro-phenyl)-4-[1-(4-pyridin-3-yl-thiazol-2-yl)-cyclopropyl]-benzamide]	0.0518
Nc1ccccc1NC(=O)c1ccc(C2(c3nc(-c4ccc(N5CCCC5)nc4)cs3)CCOCC2)cc1 [Example 20, N-(2-aminophenyl)-4-(4-(4-(6-(pyrrolidin-1-yl)pyridin-3-yl)thiazol-2-yl)tetrahydropyran-4-yl)benzamide]	0.019
CN1CCc2nc(C3(c4ccc(C(=O)Nc5cc(-c6cccs6)ccc5N)cc4)CCOCC3)sc2C1 [Example 21, N-(2-amino-5-(thiophen-2-yl)phenyl)-4-(4-(5-methyl-4,5,6,7-tetrahydrothiazolo[5,4-c]pyridin-2-yl)tetrahydropyran-4-yl)benzamide]	0.006
Nc1ccc(-c2cccs2)cc1NC(=O)c1ccc(C2(c3nc(-c4cccnc4)cs3)CCOCC2)cc1 [Example 22, N-(2-amino-5-(thiophen-2-yl)phenyl)-4-(4-(4-(pyridin-3-yl)thiazol-2-yl)tetrahydropyran-4-yl)benzamide]	0.014
Nc1ccc(F)cc1NC(=O)c1ccc(C2(c3nc(-c4cccnc4)cs3)CCOCC2)cc1 [Example 23, N-(2-amino-5-fluorophenyl)-4-(4-(4-(pyridin-3-yl)thiazol-2-yl)tetrahydropyran-4-yl)benzamide]	0.032
COCCOc1ccc(-c2csc(C3(c4ccc(C(=O)Nc5ccccc5N)cc4)CCOCC3)n2)cn1 [Example 24, N-(2-aminophenyl)-4-(4-(4-(6-(2-methoxyethoxy)pyridin-3-yl)thiazol-2-yl)tetrahydropyran-4-yl)benzamide]	0.013

The next lines start with the values.

IC50 [µM]	Structure (SMILES)
0.006	CN1CCN(c2ccc(-c3csc(C4(c5ccc(C(=O)Nc6ccccc6N)cc5)CCOCC4)n3)cn2)CC1 [Example 25, N-(2-aminophenyl)-4-(4-(4-(6-(4-methylpiperazin-1-yl)pyridin-3-yl)thiazol-2-yl)tetrahydropyran-4-yl)benzamide]
0.017	Nc1ccccc1NC(=O)c1ccc(C2(c3nc4c(s3)COCC4)CCOCC2)cc1 [Example 26, N-(2-aminophenyl)-4-(4-(6,7-dihydropyrano[4,3-d]thiazol-2-yl)tetrahydropyran-4-yl)benzamide]
0.019	CC(=O)N1CCc2nc(C3(c4ccc(C(=O)Nc5ccccc5N)cc4)CCOCC3)sc2C1 [Example 27, 4-(4-(5-acetyl-4,5,6,7-tetrahydrothiazolo[5,4-c]pyridin-2-yl)tetrahydropyran-4-yl)-N-(2-aminophenyl)benzamide]
0.0026	CC(=O)N1CCc2nc(C3(c4ccc(C(=O)Nc5cc(-c6cccs6)ccc5N)cc4)CCOCC3)sc2C1 [Example 28, 4-(4-(5-acetyl-4,5,6,7-tetrahydrothiazolo[5,4-c]pyridin-2-yl)tetrahydropyran-4-yl)-N-(2-amino-5-(thiophen-2-yl)phenyl)benzamide]
0.032	CN1CCc2nc(C3(c4ccc(C(=O)Nc5ccccc5N)cc4)CCOCC3)sc2C1 [Example 29, N-(2-aminophenyl)-4-(4-(5-methyl-4,5,6,7-tetrahydrothiazolo[5,4-c]pyridin-2-yl)tetrahydropyran-4-yl)benzamide]
0.067	CN1CCc2nc(C3(c4ccc(C(=O)Nc5cc(F)ccc5N)cc4)CCOCC3)sc2C1 [Example 30, N-(2-amino-5-fluorophenyl)-4-(4-(5-methyl-4,5,6,7-tetrahydrothiazolo[5,4-c]pyridin-2-yl)tetrahydropyran-4-yl)benzamide]
0.001	Nc1ccc(-c2cccs2)cc1NC(=O)c1ccc(C2(c3nc(CN4CCCC4)cs3)CCOCC2)cc1 [Example 31, N-(2-amino-5-(thiophen-2-yl)phenyl)-4-(4-(4-(pyrrolidin-1-ylmethyl)thiazol-2-yl)tetrahydropyran-4-yl)benzamide]
0.0025	COCCOCc1csc(C2(c3ccc(C(=O)Nc4cc(-c5cccs5)ccc4N)cc3)CCOCC2)n1 [Example 32, N-(2-amino-5-(thiophen-2-yl)phenyl)-4-(4-(4-((2-methoxyethoxy)methyl)thiazol-2-yl)tetrahydropyran-4-yl)benzamide]
0.0029	Nc1ccc(-c2cccs2)cc1NC(=O)c1ccc(C2(c3nc(CN4CCOCC4)cs3)CCOCC2)cc1 [Example 33, N-(2-amino-5-(thiophen-2-yl)phenyl)-4-(4-(4-(morpholinomethyl)thiazol-2-yl)tetrahydropyran-4-yl)benzamide]
0.0066	Nc1ccccc1NC(=O)c1ccc(C2(c3nc(-c4ccc(N5CCN(C6CC6)CC5)nc4)cs3)CCOCC2)cc1 [Example 34, N-(2-aminophenyl)-4-(4-(4-(6-(4-cyclopropylpiperazin-1-yl)pyridin-3-yl)thiazol-2-yl)tetrahydropyran-4-yl)benzamide]
0.0033	Nc1ccccc1NC(=O)c1ccc(C2(c3nc(-c4ccc(N5CCNCC5)nc4)cs3)CCOCC2)cc1 [Example 35, N-(2-aminophenyl)-4-(4-(4-(6-(piperazin-1-yl)pyridin-3-yl)thiazol-2-yl)tetrahydropyran-4-yl)benzamide]
0.0029	Nc1ccc(-c2ccc(F)cc2)cc1NC(=O)c1ccc(C2(c3nccs3)CCOCC2)cc1 [Example 36, N-(4-amino-4′-fluorobiphenyl-3-yl)-4-(4-(thiazol-2-yl)tetrahydropyran-4-yl)benzamide]
